The source of these data is paper PMC9024361, “Pharmacokinetics, Tissue Distribution, Metabolism and Excretion of a Novel COX-2 Inhibitor, Vitacoxib, in Rats” (Frontiers in Veterinary Science, 2022).

The nature of data set [1]: Metabolite identification in plasma, bile, urine and feces (UPLC Q-TOF MS). Format: in vivo, Wistar rats. The following applies: rats; for Source (matrices in which the metabolite was detected): single oral 18 mg/kg vitacoxib, Q-TOF MS; for Share of the metabolite in urinary and fecal excretion: urine and feces, not quantified. The procedure:
Six male rats were placed in their own metabolic cages and orally administered a single dose of 18 mg/kg dose of vitacoxib (tablets crushed and dissolved in 0.5% CMC-Na, 6 mg/ml). Bile, fecal, and urine samples were collected from each animal in metabolic cages at 0~8, 8~23, 23~32, 32~48, 48~58, 58~72, 72~82, 82~96, and 96~128 h after administration. The total weight of urine and feces was recorded after collection. Feces samples were diluted with 3 volumes (v/w) of triple-distilled water and homogenized, and the homogenate was stored at −20°C until further analysis.
Chromatographic separation was performed using an ACQUITY UPLC^TM system (Waters Corporation, Milford, MA, USA). A Waters ACQUITY UPLC HSS T3 column (1.7 μm, 2.1 mm × 100 mm) was used for reversed-phase UPLC and the column temperature was maintained at 40°C. The flow rate of the mobile phase was 0.5 ml/min and the injection volume was 5 μl. Mobile phase A was 0.1% formic acid in water and mobile phase B was 0.1% formic acid in methanol. The column was eluted using a linear gradient (0 → 1 min, phase A 90%; 1 → 10 min, phase A 90% → 5%; 10 → 13.5 min, phase A 5% → 5%; and 13.5 → 15 min, phase A 5% → 90%).
MS analysis was performed using a Xevo G2-S Q-TOF mass spectrometer. The eluent was not shunted but injected directly into the mass analysis system in the positive-ion mode. The source temperature was set at 120°C. The flow rate of the desolvation gas was 800 L/h at a temperature of 500°C. The capillary voltage was set at 3 kV with 35 V as the cone voltage. Methods to analyze different tissues and samples were developed and validated in our lab. Data were analyzed using Metabolynx^TM software (version 4.1), which could automatically identify metabolites by comparing treatment samples with the respective controls.

The nature of data set [2]: Tissue distribution after a single oral dose. Format: in vivo, Wistar rats. The settings on record: rats. How it is done: Eighteen rats were administered a single oral dose (18 mg/kg BW) of vitacoxib (tablets crushed and dissolved in 0.5% CMC-Na, 6 mg/ml). Six rats were euthanized at each time point of 0.25, 6, and 24 h after dose administration. The brain, liver, heart, spleen, lungs, bladder, kidneys, gracilis muscle, gastrointestinal tract, large intestinal contents, small intestine, bone marrow, testes, epididymis, thymus gland, fat, and pancreas were collected and weighed. Each sample was diluted with 3 volumes (v/w) of triple-distilled water and homogenized, and the homogenate was stored at −20°C until further analysis. Vitacoxib in tissue samples was analyzed using UPLC-MS/MS by following a previously described procedure.

For data set [3], the system named is Institute of Cancer Research (ICR) mice. The settings on record: mouse, in vivo; cited from earlier work.
For data set [4], the system named is COX-2. Details: method as in doi:10.11669/cpj.2013.20.011. The settings on record: rats, preclinical trials; cited from earlier work.
In data set [5] the test system is COX-2. Further details: method as in doi:10.11669/cpj.2013.20.011. The following applies: dogs, preclinical trials; cited from earlier work.
For data set [6] the following is noted: dog, in vivo, 2 mg/kg; cited from earlier work.
Data set [7] in a line: Urinary and fecal excretion of unchanged drug. The format is in vivo, Wistar rats. The following applies: rats. The procedure:
Six male rats were placed in separate metabolic cages and administered a single oral dose of 18 mg/kg of vitacoxib (tablets were crushed and dissolved in 0.5% CMC-Na, 6 mg/ml). Urine and fecal samples were collected from each animal in metabolic cages at different time points at 2, 4, 6, 8, 10, 14, 24, 36, 48, 60, 72, 84, 96, 108, 120, 132, 144, 156, and 168 h after drug administration.
(§1) Eight male rats with bile-duct cannulation were administered 18 mg/kg of vitacoxib (tablets crushed and dissolved in 0.5% CMC-Na, 6 mg/ml). Rats were housed in metabolism cages and bile samples were collected at 2, 4, 6, 8, 10, 14, 24, 36, 48, 60, and 72 h after drug administration. All samples were stored at −20°C until further analysis. […] Vitacoxib in urine, fecal, and bile samples was determined via validation UPLC-MS/MS using the procedure described for blood ([18]).

The test system of another data set is guinea pigs. Further details: method as in PMID 28959651. The following applies: cited from earlier work.
The test system of the next data set is Sprague Dawley (SD) rats. The settings on record: rat, in vivo; cited from earlier work.
Data set [8] in a line: Plasma pharmacokinetics after a single oral dose. The following applies: male, Wistar, rat, rats, single p.o. 18 mg/kg b.w., n = 5, plasma. Format: in vivo. The procedure: (§2) Five male rats were administered a single dose of vitacoxib (18 mg/kg) obtained by crushing and dissolving vitacoxib tablets in 0.5% CMC-Na (6 mg/ml). Blood samples (0.3 ml) were collected via a cannula directly into heparinized tubes before drug administration and 5, 15, 30 min, and 1, 2, 3, 4, 6, 8, 10, 12, 24, 36, and 48 h after drug administration. The samples were centrifuged at 2,280 × g for 10 min as soon as possible and stored at −20°C until further analysis (within 21 days).
Vitacoxib in plasma samples was analyzed using an established and validated UPLC-MS/MS (Waters Acquity UPLC and Water Quattro Premier, Waters Co., USA) method using a procedure previously described by our group ([18]). The lower limit of quantification was 0.5 ng/ml and the calibration range of the method was 0.5–1,000 ng/ml. Noncompartmental analysis was performed to determine the pharmacokinetic parameters, as appropriate, using WinNonlin^TM (version 6.4, Certara, Princeton NJ, USA) computational software.

Another data set deals with rats and mice. Details: method as in PMID 30128300. The settings on record: cited from earlier work.
The next data set relates to rabbits. Details: method as in PMID 28959651. The following applies: cited from earlier work.
On the set-up of data set [9]: method as in PMID 30076623. The settings on record: horses, 0.1 mg/kg bw; cited from earlier work.
A further data set has as its system rats. Description: Observation of adverse effects after a single oral dose. Format: in vivo, Wistar rats. The settings on record: single oral dose 18 mg/kg BW. How it is done:
as §2

The nature of data set [10]: Bile excretion of unchanged drug in bile-duct cannulated rats. Format: in vivo, Wistar rats. The following applies: single oral 18 mg/kg, 0~72 h. The procedure: as §1
The test system of another data set is SD rats. Details: method as in PMID 28238853, PMID 29601910. The following applies: repeated dietary administration, cited from earlier work.

Each structure is given as a SMILES string. “Also recorded” adds a separate entry of the source. Where two headings read alike, the source gives them in different places.

Take `CS(=O)(=O)c1ccc(-n2cnc(Cl)c2-c2ccc(CO)cc2)nc1` [M1]: in [1], the “Source (matrices in which the metabolite was detected)” value is “Plasma, bile, feces, and urine”; the “Share of the metabolite in urinary and fecal excretion” value was “minor amount of the dose”.
`CS(=O)(=O)c1ccc(-n2cnc(Cl)c2-c2ccc(C(=O)O)cc2)nc1` [M2, 4-(4-chloro-1-(5-(methylsulfonyl)pyridin-2-yl)-1H-imidazol-5-yl) benzoic acid]: the “Source (matrices in which the metabolite was detected)” value in data set [1] is “Bile, feces, and urine”. The results for the “Share of the metabolite in urinary and fecal excretion” value in data set [1] (listed as carboxylic acid derivative) and in data set [1] (listed as carboxylic acid metabolite) were “major metabolite” and “primary metabolite”, respectively.
In the case of `Cc1ccc(-c2c(Cl)ncn2-c2ccc(S(C)(=O)=O)cn2)cc1` [vitacoxib, 2-(4-chloro-5-p-tolyl-1H-imidazol-1-yl)-5-(methylsulfonyl) pyridine], in data set [2] (single oral dose 18 mg/kg BW), the “Crossing of the intestinal barrier” value is given as “could cross the intestinal barrier” and the “Time by which vitacoxib was detected in most tissues” value is on record as no more than 15 min. In addition, the “Concentration in most tissues by 24 h after administration” value in data set [2] (single oral dose 18 mg/kg BW, 24 h) is “below the limit of detection”. Besides, the “Presence in brain / crossing of blood-brain barrier” value in [2] (single oral dose 18 mg/kg BW, 18 mg/kg) was “found in the brain; also recorded: cross the blood-brain barrier”. In [2] (single oral gavage dose 18 mg/kg bw), the “Order of AUC(0~24h) values in different tissues” value was “gastric contents > large intestinal contents > small intestinal contents > stomach > large intestine > pancreas > liver > small intestine > fat > lungs > spleen > brain > plasma > testes > kidneys > spinal cord > thymus > bones > heart > spermatic > skeletal muscles > bladder”. For the same compound, the “Oral LD50” value in data set [3] is on record as > 5,000 mg/kg body weight (BW). In addition, in the data set on COX-2 [4], the “COX-2 inhibition (specificity)” value is on record as “specifically inhibits COX-2”. In addition, the “COX-2 inhibition (specificity)” value with COX-2 [5] is “specifically inhibits COX-2”. For the same compound, the T1/2λz in [6] is recorded as 5. 87 ± 3. 37 h. In addition, in [7] (single oral 18 mg/kg, 0~168 h), the “Cumulative excretion in feces in unaltered form” value is listed as 4.7334% ± 1.6645% and the “Cumulative excretion in urine in unaltered form” value was 0.0135% ± 0.0053%. Besides, in data set [7] (single oral dose), the “Dose recovered in the urine or feces as the parent drug” value is on record as less than 5%. Besides, in the data set on guinea pigs, the Skin sensitization entry was “does not cause skin irritation in rabbits or skin sensitization”. Also, the “Oral LD50” value with Sprague Dawley (SD) rats is on record as > 5,000 mg/kg body weight (BW). Also, the Tmax in [8] (plasma, 18 mg/kg) is roughly 5 h. The AUC(0-inf) in data set [8] (0 to infinity, read-out: AUCINF_obs) stood at 4930 ± 588 ng·h/mL. In addition, the AUC(0-t) in data set [8] (0 to last point) is 4900 ± 604 ng·h/mL. Moreover, in data set [8] (noncompartmental, read-out: λz (elimination rate constant) (converted)), the k el is 4.44e-05 s⁻¹. Further, in data set [8] (read-out: Cmax (maximum plasma concentration)), the Cmax was found to be 450 ± 96.2 ng/mL. Besides, the MRT last in data set [8] (read-out: MRTlast (mean residence time)) came to 8.09 ± 1.72 h. In addition, the half-life in [8] (read-out: T1/2λz (elimination half-life) (converted)) was 4.25 ± 0.3 h. Besides, in the data set on rats and mice, the Mutagenicity result is “No mutagenicity or teratogenicity” and the Teratogenicity result is “No mutagenicity or teratogenicity”. Moreover, in the data set on rabbits, the Skin irritation entry was “does not cause skin irritation”. Further, the T1/2λz in data set [9] was 7.39 ± 4.17 h. Further, the Adverse effects result in the data set with rats was “No obvious or serious adverse effects; also recorded: no adverse effects”. The “Cumulative excretion in bile in unaltered form” value in [10] is given as 0.0261% ± 0.00627%. Also, the “No-observed-adverse-effect-level (90 days)” value in the data set with SD rats (90 days) is 20 mg/kg. Further, the “No-observed-adverse-effect-level (180 days)” value in the data set on SD rats (180 days) is 6 mg/kg BW/day.

What is called Tmax is the time at which the peak concentration occurs. In general, AUC(0-t) refers to the area under the concentration-time curve up to a stated or last time point.
